Experiments:
mice treated with MPTP = settings: cited from earlier work
mice (model of anxiety) [1] = settings: reported by Addex 2010; cited from earlier work
rats (model of anxiety) = settings: cited from earlier work
mice (model of anxiety) [2] = settings: reported by Addex 2010; cited from earlier work; remark: listed apart in the source
human mGlu4 receptor = human mGlu4 receptor (Homo sapiens (Human), UniProt Q14833); assay: Ca2+ mobilization in vitro assay on recombinant human mGlu4 expressed in HEK293 cells (PAM); type: cell-based; settings: for Emax: HEK293, maximal response in % of maximal stimulatory effect of saturating L-AP4, read-out: Eff. (%); for EC50: HEK293 cells, human mGlu4, in presence of EC20 of L-AP4, read-out: EC50 (nM) mGlu4PAM
Method in brief: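 HEK293 cells stably expressing human mGlu4 at low level, Fluo-4AM loaded; compound (11 half-log dilutions) pre-incubated 10–30 min at 37 °C, then L-AP4 added at EC20 (determined daily). Peak fluorescence minus basal, normalized to saturating L-AP4; EC50, Hill slope and % Emax from four-parameter fit.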

[3] = test system: 6-OHDA rodent model of PD; settings: cited from earlier work

Sequence of human mGlu4 receptor (Q14833 33-912): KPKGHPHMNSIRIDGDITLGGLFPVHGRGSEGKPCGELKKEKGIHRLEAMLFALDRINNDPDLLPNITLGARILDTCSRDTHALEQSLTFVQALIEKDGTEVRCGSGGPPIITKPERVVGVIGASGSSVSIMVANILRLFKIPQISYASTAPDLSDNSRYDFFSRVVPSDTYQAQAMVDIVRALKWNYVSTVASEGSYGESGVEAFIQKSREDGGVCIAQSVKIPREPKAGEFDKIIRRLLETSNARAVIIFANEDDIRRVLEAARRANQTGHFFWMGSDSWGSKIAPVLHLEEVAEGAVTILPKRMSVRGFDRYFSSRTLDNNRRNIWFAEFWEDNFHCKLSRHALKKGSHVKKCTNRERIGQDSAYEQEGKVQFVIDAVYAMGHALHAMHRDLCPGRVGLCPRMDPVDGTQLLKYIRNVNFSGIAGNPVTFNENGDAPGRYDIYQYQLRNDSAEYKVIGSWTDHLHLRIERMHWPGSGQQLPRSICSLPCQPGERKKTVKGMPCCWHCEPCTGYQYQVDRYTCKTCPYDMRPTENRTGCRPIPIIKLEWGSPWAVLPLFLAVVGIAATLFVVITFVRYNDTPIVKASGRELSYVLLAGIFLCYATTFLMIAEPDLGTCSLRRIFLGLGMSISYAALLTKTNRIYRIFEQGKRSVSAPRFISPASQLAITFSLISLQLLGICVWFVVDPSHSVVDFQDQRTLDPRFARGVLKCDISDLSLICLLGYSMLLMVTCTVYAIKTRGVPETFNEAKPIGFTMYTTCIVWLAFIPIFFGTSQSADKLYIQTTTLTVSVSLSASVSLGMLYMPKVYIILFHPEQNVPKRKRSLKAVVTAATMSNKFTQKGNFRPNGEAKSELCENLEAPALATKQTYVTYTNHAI

## O=C(Nc1ccccc1)C12CC1/C(=N\O)c1ccccc1O2 (single isomer, unassigned; (-)) [(−)-PHCCC]
Mice treated with MPTP
  nigrostriatal degeneration: reduced nigrostriatal degeneration

## Cc1ccnc(Nc2nc(-c3cn[nH]c3)c(C)s2)n1 [ADX88178]
Mice (model of anxiety) [1]
  activity in EPM: active
Rats (model of anxiety); rat, after oral dosing
  profile in rat EPM test: anxiolytic-like profile
Rats (model of anxiety); rats, reported by Addex 2010
  activity in EPM: active
Mice (model of anxiety) [2]
  activity in marble burying test: active

## CC[C@@]12CC(=O)N(c3c(F)cc(C#Cc4ccccc4)cc3F)C(=O)N1CCN(c1cnn(C)c1)C2=O [Example 107, (9aS)-7-[2,6-difluoro-4-(2-phenylethynyl)phenyl]-9a-ethyl-2-(1-methylpyrazol-4-yl)-4,9-dihydro-3H-pyrazino[1,2-c]pyrimidine-1,6,8-trione]
Human mGlu4 receptor
  Emax: 125%
  EC50: 104 nM

## C[C@@]12CC(=O)N(c3c(F)cc(C#Cc4ccccc4F)cc3F)C(=O)N1CCN(c1cccnc1)C2=O [Example 109, (9aS)-7-[2,6-difluoro-4-[2-(2-fluorophenyl)ethynyl]phenyl]-9a-methyl-2-(3-pyridyl)-4,9-dihydro-3H-pyrazino[1,2-c]pyrimidine-1,6,8-trione]
Human mGlu4 receptor
  Emax: 85%
  EC50: 56 nM

## C[C@@]12CC(=O)N(c3c(F)cc(C#Cc4ccccc4F)cc3F)C(=O)N1CCN(c1ccncn1)C2=O [Example 110, (9aS)-7-[2,6-difluoro-4-[2-(2-fluorophenyl)ethynyl]phenyl]-9a-methyl-2-pyrimidin-4-yl-4,9-dihydro-3H-pyrazino[1,2-c]pyrimidine-1,6,8-trione]
Human mGlu4 receptor
  Emax: 90%
  EC50: 31 nM

## Cn1cc(N2CCN3C(=O)N(c4c(F)cc(C#Cc5ccccc5F)cc4F)C(=O)C[C@@]3(C)C2=O)cn1 [Example 111, (9aS)-7-[2,6-difluoro-4-[2-(2-fluorophenyl)ethynyl]phenyl]-9a-methyl-2-(1-methylpyrazol-4-yl)-4,9-dihydro-3H-pyrazino[1,2-c]pyrimidine-1,6,8-trione]
Human mGlu4 receptor
  Emax: 120%
  EC50: 56 nM

## N[C@@H](CCP(=O)(O)O)C(=O)O [L-AP4, (2S)-2-amino-4-phosphonobutanoic acid]
[3]
  neuroprotection: neuroprotective effects

From US10011607B2, “Ethynyl derivatives” (Hoffmann-La Roche Inc., priority 2015, dated 2018)
